Experimental data as given in PMC8500670, “A selective WDR5 degrader inhibits acute myeloid leukemia in patient-derived mouse models” (Science translational medicine, 2021).
Where two headings read alike, the source gives them in different places.

Assays:
Assay in all cases: biochemical
Parameters in all cases: protein methyltransferase selectivity panel, enzyme activity relative to DMSO controls, single concentration in duplicate
NSD3 = molecular target: T1, NSD3 (Homo sapiens, UniProt Q9BZ95); settings: Substrate:=Nucleosomes
T1 sequence (Q9BZ95 1-1437): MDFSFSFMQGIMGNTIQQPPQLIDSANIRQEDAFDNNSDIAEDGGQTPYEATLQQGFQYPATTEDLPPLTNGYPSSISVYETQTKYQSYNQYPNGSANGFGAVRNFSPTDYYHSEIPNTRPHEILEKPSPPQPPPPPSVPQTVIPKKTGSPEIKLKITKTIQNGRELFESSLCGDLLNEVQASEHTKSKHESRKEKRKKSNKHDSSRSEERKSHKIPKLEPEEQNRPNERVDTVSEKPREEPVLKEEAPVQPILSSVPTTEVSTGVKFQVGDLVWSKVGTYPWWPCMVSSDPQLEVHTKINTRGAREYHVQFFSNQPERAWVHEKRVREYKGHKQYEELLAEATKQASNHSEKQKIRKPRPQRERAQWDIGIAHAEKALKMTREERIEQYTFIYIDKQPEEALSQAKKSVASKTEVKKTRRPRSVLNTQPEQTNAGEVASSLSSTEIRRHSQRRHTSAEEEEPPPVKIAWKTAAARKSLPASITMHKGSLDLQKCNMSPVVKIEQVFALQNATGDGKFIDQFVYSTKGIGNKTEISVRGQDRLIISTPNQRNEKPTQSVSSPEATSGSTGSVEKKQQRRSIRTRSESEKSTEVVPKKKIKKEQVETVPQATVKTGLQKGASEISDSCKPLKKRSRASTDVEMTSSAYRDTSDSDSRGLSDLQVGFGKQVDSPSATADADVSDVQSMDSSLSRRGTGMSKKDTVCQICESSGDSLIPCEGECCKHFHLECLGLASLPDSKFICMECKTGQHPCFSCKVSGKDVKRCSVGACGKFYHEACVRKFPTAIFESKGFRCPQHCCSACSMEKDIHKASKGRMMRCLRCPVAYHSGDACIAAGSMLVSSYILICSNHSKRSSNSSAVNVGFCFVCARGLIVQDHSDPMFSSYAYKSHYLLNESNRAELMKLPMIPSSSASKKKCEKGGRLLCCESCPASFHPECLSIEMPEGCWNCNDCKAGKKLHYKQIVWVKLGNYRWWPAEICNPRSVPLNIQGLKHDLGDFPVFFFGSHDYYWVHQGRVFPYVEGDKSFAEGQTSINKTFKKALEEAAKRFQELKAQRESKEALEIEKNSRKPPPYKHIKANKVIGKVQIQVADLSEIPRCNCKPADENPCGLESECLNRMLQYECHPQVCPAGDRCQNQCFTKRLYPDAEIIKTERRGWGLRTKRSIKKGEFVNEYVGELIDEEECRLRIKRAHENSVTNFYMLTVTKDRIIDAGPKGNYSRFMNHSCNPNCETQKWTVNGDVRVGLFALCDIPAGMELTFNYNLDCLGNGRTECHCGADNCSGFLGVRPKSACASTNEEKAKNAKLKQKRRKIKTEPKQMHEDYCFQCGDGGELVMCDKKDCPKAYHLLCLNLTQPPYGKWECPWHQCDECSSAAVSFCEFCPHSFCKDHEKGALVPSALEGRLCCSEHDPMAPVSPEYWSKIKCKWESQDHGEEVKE
Procedure: (§1) We next assessed selectivity of MS67 against 22 protein methyltransferases (table S2) and a broad panel of common drug targets including 45 kinases (table S3) and 44 G protein–coupled receptors (GPCR), ion channels, and transporters (table S4). […] We subsequently determined that MS67 had moderate binding affinity (Ki = 1.0 ± 0.8 μM) to Sigma 2 receptor (fig. S10).

PRMT3 = PRMT3 (Homo sapiens, UniProt O60678); settings: Substrate:=Histone H4
PRMT3, sequence (O60678 whole entry): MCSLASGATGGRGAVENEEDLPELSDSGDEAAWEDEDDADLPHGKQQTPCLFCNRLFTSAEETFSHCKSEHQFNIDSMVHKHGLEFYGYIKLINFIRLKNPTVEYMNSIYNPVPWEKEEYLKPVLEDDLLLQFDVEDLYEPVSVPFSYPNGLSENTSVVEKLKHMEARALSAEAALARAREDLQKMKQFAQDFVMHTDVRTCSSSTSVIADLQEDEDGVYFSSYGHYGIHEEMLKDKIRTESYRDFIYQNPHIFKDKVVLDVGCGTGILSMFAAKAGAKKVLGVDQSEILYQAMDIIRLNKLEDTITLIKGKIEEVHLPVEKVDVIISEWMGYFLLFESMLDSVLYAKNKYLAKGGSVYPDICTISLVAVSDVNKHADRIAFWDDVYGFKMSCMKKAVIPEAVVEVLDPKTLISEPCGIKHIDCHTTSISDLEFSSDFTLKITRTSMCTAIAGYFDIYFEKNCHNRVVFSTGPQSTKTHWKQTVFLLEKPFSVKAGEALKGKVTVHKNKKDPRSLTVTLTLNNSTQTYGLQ
Procedure: as §1

PRMT6 = PRMT6 (Homo sapiens, UniProt Q96LA8); settings: Substrate:=GST-GAR
PRMT6, sequence (Q96LA8 whole entry): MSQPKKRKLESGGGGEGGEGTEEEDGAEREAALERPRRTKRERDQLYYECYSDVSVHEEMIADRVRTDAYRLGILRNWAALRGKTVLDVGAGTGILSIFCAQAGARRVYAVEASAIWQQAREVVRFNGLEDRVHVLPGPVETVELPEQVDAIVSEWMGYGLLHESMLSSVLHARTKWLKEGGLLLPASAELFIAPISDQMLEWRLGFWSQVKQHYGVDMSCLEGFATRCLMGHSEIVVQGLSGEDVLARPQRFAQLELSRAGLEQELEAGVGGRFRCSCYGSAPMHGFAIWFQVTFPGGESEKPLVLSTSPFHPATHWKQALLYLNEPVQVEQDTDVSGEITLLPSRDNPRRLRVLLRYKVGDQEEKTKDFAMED
Procedure: as §1

SMYD3 = molecular target: T2, SMYD3 (Homo sapiens, UniProt Q9H7B4); settings: Substrate:=MEKK2
T2 sequence (Q9H7B4 1-428): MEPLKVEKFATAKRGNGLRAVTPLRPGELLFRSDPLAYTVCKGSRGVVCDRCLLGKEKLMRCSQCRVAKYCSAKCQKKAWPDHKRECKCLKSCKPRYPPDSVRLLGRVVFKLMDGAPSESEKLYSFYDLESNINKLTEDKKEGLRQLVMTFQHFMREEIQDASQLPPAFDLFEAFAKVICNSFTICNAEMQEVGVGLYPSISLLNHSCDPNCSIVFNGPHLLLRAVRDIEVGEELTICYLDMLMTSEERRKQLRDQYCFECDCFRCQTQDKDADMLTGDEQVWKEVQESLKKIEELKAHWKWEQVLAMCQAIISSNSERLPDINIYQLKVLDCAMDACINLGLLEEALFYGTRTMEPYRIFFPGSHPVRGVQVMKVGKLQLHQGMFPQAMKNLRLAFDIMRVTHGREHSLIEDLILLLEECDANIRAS
Procedure: as §1

SUV39H2 = SUV39H2 (Homo sapiens, UniProt Q9H5I1); settings: Substrate:=Histone H3; read-out: Enzyme % Activity (relative to DMSO controls) / MS67 / 10 / Data 1:
Procedure: as §1

[1] = read-out: Enzyme % Activity (relative to DMSO controls) / MS67 / 10 / Data 1:
[2] = read-out: Enzyme % Activity (relative to DMSO controls) / MS67 / 10 / Data 2:

SUV39H2, sequence (Q9H5I1 whole entry): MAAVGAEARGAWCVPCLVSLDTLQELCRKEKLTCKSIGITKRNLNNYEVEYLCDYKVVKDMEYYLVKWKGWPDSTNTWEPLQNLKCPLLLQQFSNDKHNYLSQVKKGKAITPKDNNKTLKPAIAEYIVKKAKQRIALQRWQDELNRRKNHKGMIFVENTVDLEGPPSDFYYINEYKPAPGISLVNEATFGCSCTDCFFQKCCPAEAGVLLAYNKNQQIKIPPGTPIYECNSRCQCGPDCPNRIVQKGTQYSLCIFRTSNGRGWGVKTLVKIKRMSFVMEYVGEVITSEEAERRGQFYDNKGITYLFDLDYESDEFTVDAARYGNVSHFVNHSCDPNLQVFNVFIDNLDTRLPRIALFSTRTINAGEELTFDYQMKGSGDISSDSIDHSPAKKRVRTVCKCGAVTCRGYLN

## Cc1ncsc1-c1ccc([C@H](C)NC(=O)[C@@H]2C[C@@H](O)CN2C(=O)[C@@H](NC(=O)CNC(=O)c2ccc(F)c(-c3ccc(N4C[C@@H](C)N(C)[C@@H](C)C4)c(NC(=O)c4c[nH]c(=O)cc4C(F)(F)F)c3)c2)C(C)(C)C)cc1 [MS67]
NSD3; [1]
  remaining activity at 10 µM: 136%
NSD3; [2]
  remaining activity at 10 µM: 145%
PRMT3; [1]
  remaining activity at 10 µM: 92%
PRMT3; [2]
  remaining activity at 10 µM: 102%
PRMT6; [1]
  remaining activity at 10 µM: 97.1%
PRMT6; [2]
  remaining activity at 10 µM: 95.1%
SMYD3; [1]
  remaining activity at 10 µM: 103%
SMYD3; [2]
  remaining activity at 10 µM: 116%
SUV39H2
  remaining activity at 10 µM: 102%
